Tests used:
Format in all cases: in vivo
[1] = test system: barnyardgrass (Echinochloa crus-galli); test: Test A preemergence soil spray, visual injury rating 0-100; details: 10 days, 0 = no effect, 100 = complete control
How it was run: (§1)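 Scale 0–100 (no effect to complete control), visual, versus untreated controls, read 10 days after application. Application: preemergence directed spray onto seeded loam–sand soil, or postemergence to young plants; formulation in non-phytotoxic solvent with surfactant.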

[2] = test system: blackgrass (Alopecurus myosuroides); test: as above; details: 10 days, 0 = no effect, 100 = complete control
How it was run: as §1

corn (Zea mays) [3] = test: as above; details: 10 days, 0 = no effect, 100 = complete control
How it was run: as §1

[4] = test system: green foxtail (Setaria viridis); test: as above; details: 10 days, 0 = no effect, 100 = complete control
How it was run: as §1

kochia (Bassia scoparia) [5] = test: as above; details: 10 days, 0 = no effect, 100 = complete control
How it was run: as §1

[6] = test system: oat, wild (wild oat, Avena fatua); test: as above; details: 10 days, 0 = no effect, 100 = complete control
How it was run: as §1

[7] = test system: palmer (palmer amaranth, palmer pigweed, Amaranthus palmeri); test: as above; details: 10 days, 0 = no effect, 100 = complete control
How it was run: as §1

[8] = test system: ragweed (common ragweed, Ambrosia artemisiifolia); test: as above; details: 10 days, 0 = no effect, 100 = complete control
How it was run: as §1

[9] = test system: ryegrass, Italian (italian ryegrass, Lolium multiflorum); test: as above; details: 10 days, 0 = no effect, 100 = complete control
How it was run: as §1

soybean (Glycine max) [10] = test: as above; details: 10 days, 0 = no effect, 100 = complete control
How it was run: as §1

[11] = test system: wheat (Triticum aestivum); test: as above; details: 10 days, 0 = no effect, 100 = complete control
How it was run: as §1

[12] = test system: barnyardgrass (Echinochloa crus-galli); test: Test A postemergence application, visual injury rating 0-100; details: 10 days
How it was run: as §1

[13] = test system: blackgrass (Alopecurus myosuroides); test: as above; details: 10 days
How it was run: as §1

corn (Zea mays) [14] = test: as above; details: 10 days
How it was run: as §1

[15] = test system: galium (catchweed bedstraw, Galium aparine); test: as above; details: 10 days
How it was run: as §1

[16] = test system: green foxtail (Setaria viridis); test: as above; details: 10 days
How it was run: as §1

[17] = test system: horseweed (Erigeron canadensis); test: as above; details: 10 days
How it was run: as §1

kochia (Bassia scoparia) [18] = test: as above; details: 10 days
How it was run: as §1

[19] = test system: oat, wild (wild oat, Avena fatua); test: as above; details: 10 days
How it was run: as §1

[20] = test system: palmer (palmer amaranth, palmer pigweed, Amaranthus palmeri); test: as above; details: 10 days
How it was run: as §1

[21] = test system: ragweed (common ragweed, Ambrosia artemisiifolia); test: as above; details: 10 days
How it was run: as §1

[22] = test system: ryegrass, Italian (italian ryegrass, Lolium multiflorum); test: as above; details: 10 days
How it was run: as §1

soybean (Glycine max) [23] = test: as above; details: 10 days
How it was run: as §1

[24] = test system: wheat (Triticum aestivum); test: as above; details: 10 days
How it was run: as §1

[25] = test system: barnyardgrass (Echinochloa crusgalli); test: Test B flooded paddy test, visual plant response rating 0-100; details: 250 g ai/ha, Flood, applied to paddy water, evaluated after 13 days
How it was run: (§2)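 In this flooded assay, 2-leaf seedlings received compound through the water layer, kept at 3 cm over the soil. Plants were held 13 days in a greenhouse and then visually compared with control pots.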

[26] = test system: ducksalad (Heteranthera limosa); test: as above; details: 250 g ai/ha, Flood, applied to paddy water, evaluated after 13 days
How it was run: as §2

rice (Oryza sativa) = test: as above; details: 250 g ai/ha, Flood, applied to paddy water, evaluated after 13 days
How it was run: as §2

[27] = test system: sedge, umbrella (small-flower umbrella sedge, Cyperus difformis); test: as above; details: 250 g ai/ha, Flood, applied to paddy water, evaluated after 13 days
How it was run: as §2

[28] = 31 g ai/ha, postemergence, 0 = no effect, 100 = complete control
[29] = Postemergence, 125 g ai/ha, 0 is no effect, 100 is complete control

CC(C)COC(=O)C1C=CC(NC(=O)C2(C)CN(c3cc(F)cc(F)c3)C(=O)O2)C1 (stereo not shown) [Compound 56]
Barnyardgrass plant response rating (0-100) ([1]; 31 g ai/ha): 30
Barnyardgrass plant response rating (0 to 100 scale) ([1]; 125 g ai/ha): 100
Blackgrass plant response rating (0-100) ([2]; 31 g ai/ha): 30
Blackgrass plant response rating (0 to 100 scale) ([2]; 125 g ai/ha): 90
Corn plant response rating (0-100) (corn (Zea mays) [3]; 31 g ai/ha): 10
Corn plant response rating (0 to 100 scale) (corn (Zea mays) [3]; 125 g ai/ha): 90
Foxtail, Green plant response rating (0-100) ([4]; 31 g ai/ha): 40
Foxtail, Green plant response rating (0 to 100 scale) ([4]; 125 g ai/ha): 90
Kochia plant response rating (0-100) (kochia (Bassia scoparia) [5]; 31 g ai/ha): 0
Kochia plant response rating (0 to 100 scale) (kochia (Bassia scoparia) [5]; 125 g ai/ha): 90
Oat, Wild plant response rating (0-100) ([6]; 31 g ai/ha): 90
Oat, Wild plant response rating (0 to 100 scale) ([6]; 125 g ai/ha): 90
Amaranth, Palmer plant response rating (0-100) ([7]; 31 g ai/ha): 0
Amaranth, Palmer plant response rating (0 to 100 scale) ([7]; 125 g ai/ha): 70
Ragweed plant response rating (0-100) ([8]; 31 g ai/ha): 0
Ragweed plant response rating (0 to 100 scale) ([8]; 125 g ai/ha): 0
Ryegrass, Italian plant response rating (0-100) ([9]; 31 g ai/ha): 80
Ryegrass, Italian plant response rating (0 to 100 scale) ([9]; 125 g ai/ha): 90
Soybean plant response rating (0-100) (soybean (Glycine max) [10]; 31 g ai/ha): 30
Soybean plant response rating (0 to 100 scale) (soybean (Glycine max) [10]; 125 g ai/ha): 80
Wheat plant response rating (0-100) ([11]; 31 g ai/ha): 90
Wheat plant response rating (0 to 100 scale) ([11]; 125 g ai/ha): 100
Barnyardgrass plant response rating (0-100) [12, 28]: 90
Barnyardgrass plant response rating (0 to 100 scale) [12, 29]: 100
Blackgrass plant response rating (0-100) [13, 28]: 60
Blackgrass plant response rating (0 to 100 scale) [13, 29]: 90
Corn plant response rating (0-100) (corn (Zea mays) [14]; [28]): 90
Corn plant response rating (0 to 100 scale) (corn (Zea mays) [14]; [29]): 100
Galium plant response rating (0-100) [15, 28]: 80
Galium plant response rating (0 to 100 scale) [15, 29]: 80
Foxtail, Green plant response rating (0-100) [16, 28]: 30
Foxtail, Green plant response rating (0 to 100 scale) [16, 29]: 90
Horseweed plant response rating (0-100) [17, 28]: 20
Horseweed plant response rating (0 to 100 scale) [17, 29]: 80
Kochia plant response rating (0-100) (kochia (Bassia scoparia) [18]; [28]): 70
Kochia plant response rating (0 to 100 scale) (kochia (Bassia scoparia) [18]; [29]): 80
Oat, Wild plant response rating (0-100) [19, 28]: 90
Oat, Wild plant response rating (0 to 100 scale) [19, 29]: 90
Amaranth, Palmer plant response rating (0-100) [20, 28]: 90
Amaranth, Palmer / Pigweed, Palmer plant response rating (0 to 100 scale) [20, 29]: 80
Ragweed plant response rating (0-100) [21, 28]: 50
Ragweed plant response rating (0 to 100 scale) [21, 29]: 70
Ryegrass, Italian plant response rating (0-100) [22, 28]: 90
Ryegrass, Italian plant response rating (0 to 100 scale) [22, 29]: 90
Soybean plant response rating (0-100) (soybean (Glycine max) [23]; [28]): 70
Soybean plant response rating (0 to 100 scale) (soybean (Glycine max) [23]; [29]): 70
Wheat plant response rating (0-100) [24, 28]: 90
Wheat plant response rating (0 to 100 scale) [24, 29]: 90
Plant response rating, Barnyardgrass (0 to 100 scale, 0 is no effect and 100 is complete control) [25]: 95
Plant response rating, Ducksalad (0 to 100 scale, 0 is no effect and 100 is complete control) [26]: 90
Plant response rating, Rice (0 to 100 scale, 0 is no effect and 100 is complete control) (rice (Oryza sativa)): 15
Plant response rating, Sedge, Umbrella (0 to 100 scale, 0 is no effect and 100 is complete control) [27]: 50

From US20260285850A1, “SUBSTITUTED OXAZOLIDINONES AND IMIDAZOLINONES AS HERBICIDES” (FMC CORPORATION, priority 2023, published 2026)
